# How the values were obtained:
# a broad range of plants = details: alone or in combination with norepinephrine; cited from earlier work
# [1] = tested on: morning glory (Pharbitis nil); test: Flower bud formation promoting activity of ketol fatty acid derivative II in morning glory (Example 6); type: in vivo; details: for flower bud formation promoting effect (number of flower buds per plant, % of control): sprayed at 1 μM onto cotyledons, 14 hours dark, counted on day 16, compound (4) at 1 μM and 100 μM, FIG. 6
# Procedure: Seeds (9 g) of morning glory (variety name: Murasaki) were treated with concentrated sulfuric acid for 20 minutes, and then left to stand overnight under running water. Subsequently, the treated seeds were placed on wet sea sand for 24 hours, hilum side up, to thereby form roots. The seeds having roots were planted in sea sand to a depth of 1.5 cm to 2.0 cm, followed by culturing under continuous light (for approximately 5 days). The whole plants of the morning glory which had put forth leaves through the culture were transferred to a culture solution [KNO3 (250 mg), NH4NO3 (250 mg), KH2PO4 (250 mg), MgSO4.7H2O (250 mg), MnSO4.4H2O (1 mg), Fe-citrate n-hydrate (6 mg), H3BO3 (2 mg), CuSO4.5H2O (0.1 mg), ZnSO4.7H2O (0.2 mg), Na2MoO4.2H2O (0.2 mg), Ca(H2PO4)2.2H2O (250 mg)/distilled water (1,000 mL)]. While ketol fatty acid derivative (9) of the invention, which was obtained in the above Example 5, or test compounds such as Compound (4) was directly sprayed onto the cotyledons of the above morning glory plants grown in the culture system, the morning glory plants were subjected to treatment in the dark, then raised under the application of continuous light at 26° C. for 16 days. On day 16, the number of flower buds of the morning glory plants was counted (8 plants/group). The treatment in the dark was performed overnight (for 14 hours). In FIG. 6, along the X axis, (a) represents a control (a group of plants sprayed with distilled water), (b) represents a group of plants sprayed with ketol fatty acid derivative (9) (1 μM), (c) represents a group of plants sprayed with compound (4) (1 μM) and L-isoleusine (1 μM), (d) represents a group of plants sprayed with L-isoleusine (1 μM), (e) represents a group of plants sprayed with compound (4) (1 μM), and (f) represents a group of plants sprayed with compound (4) (100 μM). The Y axis represents flower bud formation promoting activity (shown as the percentage of each group to the control group (=100%) in terms of the number of flower buds per plant). […]
# [2] = tested on: morning glory (Pharbitis nil); test: Flower bud formation promoting activity of compounds (4) and (5) in morning glory (Example 2); type: in vivo; details: sprayed onto cotyledons, 14 hours dark, counted on day 14; FIG. 3
# Procedure: Seeds (9 g) of morning glory (variety name: Murasaki) were treated with concentrated sulfuric acid for 20 minutes, and then left to stand overnight under running water. Subsequently, the treated seeds were placed on wet sea sand for 24 hours, hilum side up, to thereby form roots. The seeds having roots were planted in sea sand to a depth of 1.5 cm to 2.0 cm, followed by culturing under continuous light (for approximately 5 days). The whole plants of the morning glory which had put forth leaves through the culture were transferred to a culture solution [KNO3 (250 mg), NH4NO3 (250 mg), KH2PO4 (250 mg), MgSO4.7H2O (250 mg), MnSO4.4H2O (1 mg), Fe-citrate n-hydrate (6 mg), H3BO3 (2 mg), CuSO4.5H2O (0.1 mg), ZnSO4.7H2O (0.2 mg), Na2MoO4.2H2O (0.2 mg), Ca(H2PO4)2.2H2O (250 mg)/distilled water (1,000 mL)]. Compound (4) or compound (5) was sprayed onto the cotyledons of the above morning glory plants at a spray volume of 2 mL per eight plants. The morning glory plants were subjected to treatment in the dark (14 hours), then raised under the application of continuous light at 26° C. for 14 days. On day 14, the number of flower buds of the morning glory plants was counted. As a control, distilled water was sprayed onto a group of plants. Compound (4) was sprayed at a concentration of 100 μM, whereas compound (5) was sprayed at concentrations of 0.001 μM to 100 μM.
smiles,measurement,setting,value
"CC/C=C\C/C=C\CC(=O)C(O)CCCCCCCC(=O)O (centres unmarked) [compound (4), 9-hydroxy-10-oxo-12(Z),15(Z)-octadecadienoic acid]",flower bud formation promoting effect,a broad range of plants,exhibit flower bud formation promoting effect
"CC/C=C\C/C=C\CC(=O)C(O)CCCCCCCC(=O)NC(C(=O)O)C(C)CC [ketol fatty acid derivative (9), N-[9-hydroxy-10-oxo-12(Z),15(Z)-octadecadienoyl]-L-isoleucine]","flower bud formation promoting effect (number of flower buds per plant, % of control)",[1],equal or higher flower bud formation promoting effect as compared with compound (4)
same,optimum administration concentration for flower bud formation promoting activity,"[1]; sprayed at 0.1 to 100 μM, FIG. 7",approximately 1 μM
"CC[C@H](C)[C@H](N)C(=O)O [L-isoleucine, reference compound]","flower bud formation promoting effect (number of flower buds per plant, % of control)",[1],not observed
"CC/C=C\C[C@H]1[C@H](CC(=O)[C@H](O)CCCCCCCC(=O)O)O[C@@]2(O)CC13C(=CC2=O)NC[C@H]3O [compound (5), (9R)-11-{(2′S,8′S,10′S,11′R)-2′,8′-dihydroxy-7′-oxo-11′-[(Z)-2-pentenyl]-9′-oxa-4′-azatricyclo[6.3.1.0^1.5]dodec-5′-en-10′-yl}-9-hydroxy-10-oxoundecanoic Acid]",concentration exhibiting the same level of flower bud formation promoting activity as 100 μM compound (4),[2],0.01 µM

# Source: US7026489B2, “Ketol fatty acid derivative and plant growth regulating agents” (Shiseido Company, Ltd., priority 2000, dated 2006)
